This note sets out measurements from ChEMBL document CHEMBL1137723, “Non-imidazole histamine H3 ligands, part IV: SAR of 1-[2-thiazol-5-yl-(2-aminoethyl)]-4-n-propylpiperazine derivatives” (Eur J Med Chem, 2009).

One experiment deals with Histamine H3 receptor (Cavia porcellus, UniProt Q9JI35). Briefly: Antagonist activity at histamine H3 receptor in guinea pig jejunum assessed as electrically evoked contractions. Format: functional, tissue-based. The note with it: read-out: pA2 (converted).
The target of a further experiment is Histamine H1 receptor (Cavia porcellus, UniProt P31389). Briefly: Antagonist activity at histamine H1 receptor in guinea pig ileum assessed as histamine-induced contractions. Format: functional, tissue-based. The note with it: read-out: pA2 (converted).
Sequence of Histamine H1 receptor (P31389 whole entry): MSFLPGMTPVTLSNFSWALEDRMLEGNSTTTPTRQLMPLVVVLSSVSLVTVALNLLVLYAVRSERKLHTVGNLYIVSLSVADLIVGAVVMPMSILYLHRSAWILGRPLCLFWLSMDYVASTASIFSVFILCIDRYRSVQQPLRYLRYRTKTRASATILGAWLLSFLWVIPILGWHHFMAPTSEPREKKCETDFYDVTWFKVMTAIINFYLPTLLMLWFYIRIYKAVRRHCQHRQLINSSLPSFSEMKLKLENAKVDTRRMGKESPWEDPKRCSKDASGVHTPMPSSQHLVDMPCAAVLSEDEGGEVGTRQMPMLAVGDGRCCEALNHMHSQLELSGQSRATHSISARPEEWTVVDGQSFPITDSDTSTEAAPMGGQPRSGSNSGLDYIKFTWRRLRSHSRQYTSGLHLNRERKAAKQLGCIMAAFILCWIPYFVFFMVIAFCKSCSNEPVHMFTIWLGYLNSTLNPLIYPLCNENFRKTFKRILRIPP

Sequence of Histamine H3 receptor (Q9JI35 whole entry): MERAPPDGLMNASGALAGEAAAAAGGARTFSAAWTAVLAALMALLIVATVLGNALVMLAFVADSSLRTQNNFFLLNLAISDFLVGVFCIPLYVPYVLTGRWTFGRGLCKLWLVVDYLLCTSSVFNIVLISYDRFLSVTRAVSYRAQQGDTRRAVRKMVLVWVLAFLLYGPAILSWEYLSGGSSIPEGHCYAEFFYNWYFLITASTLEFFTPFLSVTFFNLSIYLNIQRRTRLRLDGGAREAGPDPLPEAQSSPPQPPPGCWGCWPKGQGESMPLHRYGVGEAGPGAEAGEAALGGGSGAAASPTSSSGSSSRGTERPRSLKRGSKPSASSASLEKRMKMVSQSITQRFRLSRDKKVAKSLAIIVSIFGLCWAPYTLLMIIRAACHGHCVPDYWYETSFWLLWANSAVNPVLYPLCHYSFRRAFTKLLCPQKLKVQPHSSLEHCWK

Turning to `C=CCN1CCN(c2nc3ccccc3s2)CC1`, on Histamine H3 receptor, the Kb was 79.4 nM. Same read-out and setting: in the case of `CCCN1CCN(c2ncc(CCN)s2)CC1` it was 64.6 nM; in that of `CCCN1CCN(c2nc3cnccc3[nH]2)CC1`, 56.2 nM.

For the compound `CCCN1CCN(c2ncc(CCN(C)Cc3ccccc3)s2)CC1`, the figures for the Kb on Histamine H3 receptor and on Histamine H1 receptor were 17.4 nM and > 100000 nM, respectively. The like results for `CCCN1CCN(c2ncc(CCN(C)CCCc3ccccc3)s2)CC1` were, in that order, 5.37 nM and > 100000 nM. As to `CCCN1CCN(c2ncc(CCN(C)CCCCCc3ccccc3)s2)CC1`, the Kb at Histamine H3 receptor is 56.2 nM. On the same count and under the same terms, in the case of `CCCN1CCN(c2ncc(CCNC=O)s2)CC1` it was 117 nM. Still for that read-out and setting: in the case of `CCCN1CCN(c2nc3cnccc3o2)CC1` it was 126 nM. Still for that read-out and setting: in the case of `CCCN1CCN(c2ncc(CCNC)s2)CC1` it was 63.1 nM.

For `CCCN1CCN(c2ncc(CCN(C)C=O)s2)CC1`, the Kb at Histamine H3 receptor was 55 nM. Turning to `CCCN1CCN(c2ncc(CCN(C)C)s2)CC1`, the results for the Kb on Histamine H3 receptor and on Histamine H1 receptor were 16.6 nM and > 100000 nM, respectively.

As for `CCCCC(=O)N(C)CCc1cnc(N2CCN(CCC)CC2)s1`, on Histamine H3 receptor, the Kb was 95.5 nM. Still for that read-out and setting: in the case of `CCCN1CCN(c2nc3ccccc3s2)CC1` it was 69.2 nM; in that of `CCCCCN(C)CCc1cnc(N2CCN(CCC)CC2)s1`, 89.1 nM. Take `CCCN(C)CCc1cnc(N2CCN(CCC)CC2)s1`: the Kb on Histamine H3 receptor is 29.5 nM; at Histamine H1 receptor, > 100000 nM. As for `CCCN1CCN(c2ncc(CCN(C)C(=O)CC)s2)CC1`, the Kb on Histamine H3 receptor was 43.7 nM.

As for `S=C(NC1CCCCC1)N1CCC(c2cnc[nH]2)CC1` [THIOPERAMIDE], on Histamine H3 receptor, the Kb was 0.871 nM.
